Here are results for 17 molecules from patent US9765057B2, “3-ester-4 substituted orexin receptor antagonists” (MERCK SHARP & DOHME CORP., priority 2012, dated 2017).

The target in one assay is human orexin-2 receptor (Homo sapiens (Human), UniProt O43614). As to the kind of experiment: FLIPR Ca2+ Flux Assay, hOX2R. It is filed as cell-based. The settings on record: CHO cells expressing the human orexin-2 receptor; agonist 70 pM Ala-6,12 orexin-A. The procedure: In a typical experiment the OX1 and OX2 receptor antagonistic activity of the compounds of the present invention was determined in accordance with the following experimental method. For intracellular calcium measurements, Chinese hamster ovary (CHO) cells expressing the rat orexin-1 receptor or the human orexin-2 receptor, are grown in Iscove's modified DMEM containing 2 mM L-glutamine, […], 1% hypoxanthine-thymidine supplement, 100 U/ml penicillin, 100 μg/ml streptomycin and 10% heat-inactivated fetal calf serum (FCS). The cells are seeded at 20,000 cells/well into Becton-Dickinson black 384-well clear bottom sterile plates coated with poly-D-lysine. All reagents were from GIBCO-Invitrogen Corp. The seeded plates are incubated overnight at 37° C. and 5% CO2. Ala-6,12 human orexin-A as the agonist is prepared as a 1 mM stock solution in 1% bovine serum albumin (BSA) and diluted in assay buffer (HBSS containing 20 mM HEPES, 0.1% BSA and 2.5 mM probenecid, pH7.4) for use in the assay at a final concentration of 70 pM. Test compounds are prepared as 10 mM stock solution in DMSO, then diluted in 384-well plates, first in DMSO, then assay buffer. On the day of the assay, cells are washed 3 times with 100 μl assay buffer and then incubated for 60 min (37° C., 5% CO2) in 60 μl assay buffer containing 1 μM Fluo-4AM ester, 0.02% pluronic acid, and 1% BSA. The dye loading solution is then aspirated and cells are washed 3 times with 100 μl assay buffer. 30 μl of that same buffer is left in each well. Within the Fluorescent Imaging Plate Reader (FLIPR, Molecular Devices), test compounds are added to the plate in a volume of 25 μl, incubated for 5 min and finally 25 μl of agonist is added. Fluorescence is measured for each well at 1 second intervals for 5 minutes and the height of each fluorescence peak is compared to the height of the fluorescence peak induced by 70 pM Ala-6,12 orexin-A with buffer in place of antagonist. For each antagonist, IC50 value (the concentration of compound needed to inhibit 50% of the agonist response) is determined Alternatively, compound potency can be assessed by a radioligand binding assay (described in Bergman et. al. Bioorg. Med. Chem. Lett. 2008, 18, 1425-1430) in which the inhibition constant (Ki) is determined in membranes prepared from CHO cells expressing either the OX1 or OX2 receptor. The intrinsic orexin receptor antagonist activity of a compound which may be used in the present invention may be determined by these assays.
Sequence of human orexin-2 receptor (O43614 whole entry): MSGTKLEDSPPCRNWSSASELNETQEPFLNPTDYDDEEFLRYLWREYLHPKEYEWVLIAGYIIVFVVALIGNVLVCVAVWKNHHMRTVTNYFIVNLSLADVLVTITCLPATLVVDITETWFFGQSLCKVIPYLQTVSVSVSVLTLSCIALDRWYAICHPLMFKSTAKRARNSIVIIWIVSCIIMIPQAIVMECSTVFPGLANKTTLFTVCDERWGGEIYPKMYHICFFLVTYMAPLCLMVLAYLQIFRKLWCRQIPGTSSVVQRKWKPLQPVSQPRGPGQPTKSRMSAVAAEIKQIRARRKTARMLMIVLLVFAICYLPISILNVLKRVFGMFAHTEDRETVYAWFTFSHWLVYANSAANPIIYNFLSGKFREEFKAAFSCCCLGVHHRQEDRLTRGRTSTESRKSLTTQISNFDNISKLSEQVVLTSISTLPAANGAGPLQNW

Another assay concerns the target hOX1R (Homo sapiens, UniProt O43613). As to the kind of experiment: FLIPR Ca2+ Flux Assay, hOX1R. The settings on record: CHO cells expressing orexin-1 receptor; agonist 70 pM Ala-6,12 orexin-A. Format: cell-based. Background: Calcium assays in cells follow changes in intracellular calcium, usually with a dye or a luminescent sensor.

Take `CCOC(=O)c1c(C)ccnc1O[C@@H]1CC[C@@H](C)N(C(=O)c2ccccc2-n2nccn2)C1` [Example 1, Ethyl 4-methyl-2-{[(3R,6R)-6-methyl-1-{[2-(2H-1,2,3-triazol-2-yl)phenyl]carbonyl}piperidin-3-yl]oxy}pyridine-3-carboxylate]: the figures for the 50% inhibitory concentration (IC50) at human orexin-2 receptor and at hOX1R were 8.3 nM and 79 nM, respectively.
In the case of `COC(=O)c1c(C)ccnc1O[C@@H]1CC[C@@H](C)N(C(=O)c2ccccc2-n2nccn2)C1` [Example 2, methyl 4-methy1-2-{[(3R,6R)-6-methyl-1-{[2-(2H-1,2,3-triazol-2-yl)phenyl]carbonyl}piperidin-3-yl]oxy}pyridine-3-carboxylate], the values for the IC50 on human orexin-2 receptor and at hOX1R were 17.4 nM and 86.2 nM, respectively.
For `COC(=O)c1c(SC)ccnc1O[C@@H]1CC[C@@H](C)N(C(=O)c2ccccc2-n2nccn2)C1` [Example 3, methyl 4-(methylsulfanyl)-2-{[(3R,6R)-6-methyl-1-{[2-(2H-1,2,3-triazol-2-yl)phenyl]carbonyl}-piperidin-3-yl]oxy}pyridine-3-carboxylate], in that order: 10 nM and 618 nM.
`COC(=O)c1c(SC)ccnc1O[C@@H]1CC[C@@H](C)N(C(=O)c2ccccc2-c2ncccn2)C1` [Example 4, Methyl 2-({(3R,6R)-6-methyl-1-{(2-pyrimidin-2ylphenyl)carbonyl}piperidin-3yl}oxy)-4-(methylsulfanyl)pyridine-3-carboxylate]: the concentration for half-maximal inhibition (IC50) is 28.3 nM at human orexin-2 receptor and 554 nM on hOX1R.
For `COC(=O)c1c(SC)ccnc1O[C@@H]1CC[C@@H](C)N(C(=O)c2cc(F)ccc2-c2ncccn2)C1` [Example 5, methyl 2-({(3R,6R)-1-[(5-fluoro-2-pyrimidin-2-ylphenyl)carbonyl]-6-methylpiperidin-3-yl}oxy)-4-(methylsulfanyl)pyridine-3-carboxylate], the IC50 stood at 72.9 nM on human orexin-2 receptor and 880 nM on hOX1R.
In the case of `COC(=O)c1c(SC)ccnc1O[C@@H]1CC[C@@H](C)N(C(=O)c2ccc(F)cc2-c2ncccn2)C1` [Example 6, methyl 2-({(3R,6R)-1-[(4-fluoro-2-pyrimidin-2-ylphenyl)carbonyl]-6-methylpiperidin-3-yl}oxy)-4-(methylsulfanyl)pyridine-3-carboxylate], the IC50 was determined as 31.6 nM at human orexin-2 receptor and 888 nM on hOX1R.
Turning to `COC(=O)c1c(SC)ccnc1O[C@@H]1CC[C@@H](C)N(C(=O)c2cccc(F)c2-c2ncccn2)C1` [Example 7, methyl 2-({(3R,6R)-1-[(3-fluoro-2-pyrimidin-2-ylphenyl)carbonyl]-6-methylpiperidin-3-yl}oxy)-4-(methylsulfanyl)pyridine-3-carboxylate], the figures for the IC50 on human orexin-2 receptor and on hOX1R were 37.8 nM and 1030 nM, respectively.
Turning to `COC(=O)c1c(N2CCC2)ccnc1O[C@@H]1CC[C@@H](C)N(C(=O)c2ccccc2-n2nccn2)C1` [Example 8, Methyl 4-azetidin-1-yl-2-{[(3R,6R)-6-methyl-1-{[2-(2H-1,2,3-triazol-2-yl)phenyl]carbonyl}piperidin-3-yl]oxy}pyridine-3-carboxylate], the IC50 is 33 nM at human orexin-2 receptor and 743 nM at hOX1R.
On to `COC(=O)c1c(N2CCN(C)CC2)ccnc1O[C@@H]1CC[C@@H](C)N(C(=O)c2ccccc2-n2nccn2)C1` [Example 9, methyl 4-(4-methylpiperazin-1-yl)-2-{[(3R,6R)-6-methyl-1-{[2-(2H-1,2,3-triazol-2-yl)phenyl]carbonyl}-piperidin-3-yl]oxy}pyridine-3-carboxylate], for which the IC50 at human orexin-2 receptor was determined as 1530 nM; at hOX1R, 10000 nM.
In the case of `CCc1ccnc(O[C@@H]2CC[C@@H](C)N(C(=O)c3ccccc3-n3nccn3)C2)c1C(=O)OC` [Example 10, Methyl 4-ethyl-2-{[(3R,6R)-6-methyl-1-{[2-(2H-1,2,3-triazol-2-yl)phenyl]carbonyl}piperidin-3-yl]oxy}pyridine-3-carboxylate], the half-inhibitory concentration (IC50) is 21.1 nM at human orexin-2 receptor and 74.9 nM on hOX1R.
Turning to `COC(=O)c1c(C(C)(C)C)ccnc1O[C@@H]1CC[C@@H](C)N(C(=O)c2ccccc2-n2nccn2)C1` [Example 11], the IC50 worked out at 1010 nM on human orexin-2 receptor and 2050 nM at hOX1R.
The like results for `COC(=O)c1c(C(C)C)ccnc1O[C@@H]1CC[C@@H](C)N(C(=O)c2ccccc2-n2nccn2)C1` [Example 12, methyl 4-(1-methylethyl)-2-{[(3R,6R)-6-methyl-1-{[2-(2H-1,2,3-triazol-2-yl)phenyl]carbonyl}-piperidin-3-yl]oxy}pyridine-3-carboxylate] were, in that order, 5.46 nM and 80 nM.
The like results for `COC(=O)c1c(C2CC2)ccnc1O[C@@H]1CC[C@@H](C)N(C(=O)c2ccccc2-n2nccn2)C1` [Example 13, methyl 4-cyclopropyl-2-{[(3R,6R)-6-methyl-1-{[2-(2H-1,2,3-triazol-2-yl)phenyl]carbonyl}piperidin-3-yl]oxy}pyridine-3-carboxylate] were, in that order, 530 nM and 803 nM.
For the molecule `COC(=O)c1c(C2CCC2)ccnc1O[C@@H]1CC[C@@H](C)N(C(=O)c2ccccc2-n2nccn2)C1` [Example 14, methyl 4-cyclobutyl-2-{[(3R,6R)-6-methyl-1-{[2-(2H-1,2,3-triazol-2-yl)phenyl]carbonyl}piperidin-3-yl]oxy}pyridine-3-carboxylate], the results for the half-maximal inhibitory concentration (IC50) at human orexin-2 receptor and at hOX1R were 272 nM and 5580 nM, respectively.
For `COC(=O)c1c(C)cccc1O[C@@H]1CC[C@@H](C)N(C(=O)c2ccccc2-n2nccn2)C1` [Example 15, methyl 2-methyl-6-{[(3R,6R)-6-methyl-1-{[2-(2H-1,2,3-triazol-2-yl)phenyl]carbonyl}piperidin-3-yl]oxy}benzoate], the IC50 was 36.2 nM at human orexin-2 receptor and 1930 nM at hOX1R.
In the case of `COC(=O)c1c(O[C@@H]2CC[C@@H](C)N(C(=O)c3ccccc3-n3nccn3)C2)cccc1C(C)C` [Example 16, methyl 2-(1-methylethyl)-6-{[(3R,6R)-6-methyl-1-{[2-(2H-1,2,3-triazol-2-yl)phenyl]carbonyl}-piperidin-3-yl]oxy}benzoate], the IC50 at human orexin-2 receptor was found to be 68.8 nM; at hOX1R it was 1460 nM.
Turning to `CCOC(=O)c1c(CC)ccnc1O[C@@H]1CC[C@@H](C)N(C(=O)c2ccccc2-n2nccn2)C1` [Example 17, Ethyl 4-ethyl-2-{[(3R,6R)-6-methyl-1-{[2-(2H-1,2,3-triazol-2-yl)phenyl]carbonyl}piperidin-3-yl]oxy}pyridine-3-carboxylate], the IC50 on human orexin-2 receptor is 40.4 nM; at hOX1R it was 172 nM.

The IC50 is the concentration needed to halve the response being measured. High values mean a need for much substance, low ones inhibition by little substance.
